Here are results for 16 compounds from ChEMBL document CHEMBL1151699, “Synthesis and biological evaluation of guanylhydrazone coactivator binding inhibitors for the estrogen receptor” (Bioorg Med Chem, 2008).

Broadly, the IC50 is the concentration at which inhibition is half-maximal.

In assay [1] the target is Estrogen receptor alpha (Homo sapiens) (UniProt P03372). Briefly: Inhibition of estradiol-induced coactivator peptide SRC1 binding to estrogen receptor alpha expressed in human HEC1 cells at 20 uM after 24 hrs by beta-galactosidase based mammalian two-hybrid assay. Conditions: HEC-1. More on the design: scale not given: the % may be the effect or the level left.
Assay [2] addresses T1, Estrogen receptor (Homo sapiens, UniProt P03372).
T1 sequence (P03372 whole entry): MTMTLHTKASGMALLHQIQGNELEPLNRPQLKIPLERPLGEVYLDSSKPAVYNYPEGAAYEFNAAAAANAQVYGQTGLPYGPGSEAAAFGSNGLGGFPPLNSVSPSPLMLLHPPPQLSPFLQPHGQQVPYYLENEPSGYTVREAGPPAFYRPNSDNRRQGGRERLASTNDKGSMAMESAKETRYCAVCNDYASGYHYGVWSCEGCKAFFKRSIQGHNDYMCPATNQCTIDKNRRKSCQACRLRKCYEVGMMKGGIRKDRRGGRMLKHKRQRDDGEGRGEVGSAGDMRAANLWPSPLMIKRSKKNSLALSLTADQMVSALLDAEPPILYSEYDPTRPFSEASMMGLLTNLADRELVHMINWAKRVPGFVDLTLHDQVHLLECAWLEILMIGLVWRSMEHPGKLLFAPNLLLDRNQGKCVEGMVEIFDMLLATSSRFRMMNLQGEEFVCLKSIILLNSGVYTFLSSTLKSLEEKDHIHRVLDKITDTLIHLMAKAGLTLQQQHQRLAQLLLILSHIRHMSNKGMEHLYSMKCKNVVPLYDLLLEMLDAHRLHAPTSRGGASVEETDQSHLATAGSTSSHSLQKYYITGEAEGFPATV
Briefly: Inhibition of estradiol-induced coactivator peptide SRC binding to recombinant estrogen receptor by fluorescence polarization assay. In general terms: Fluorescence polarisation rises when a labelled molecule tumbles more slowly, as on binding a larger partner.

Assay [3] has as its target Estrogen receptor alpha (Homo sapiens) (UniProt P03372). Briefly: Antagonist activity at estrogen receptor alpha expressed in human HEC1 cells assessed as inhibition of estradiol-induced transcriptional activity at 20 uM after 24 hrs by beta-galactosidase reporter gene assay. More on the design: scale not given: the % may be the effect or the level left. To be noted: HEC-1.

Assay [4] deals with T1, Estrogen receptor. Nature of the assay: Inhibition of estradiol-induced coactivator peptide SRC1 binding to estrogen receptor alpha expressed in human HEC1 cells after 24 hrs by luciferase based mammalian two-hybrid assay. The assay is classed as cell-based, HEC-1.
Assay [5] concerns the target Estrogen receptor alpha (Homo sapiens) (UniProt P03372). Nature of the assay: Covalent binding affinity to estrogen receptor alpha assessed as change in molecular weight after 30 mins by electrospray ionization mass spectrometry.

Calls of active or inactive are those of the source. No cut-off for these calls is given here. Bounds are passed on as bounds.

Consider `N=C(N)N/N=C/C1=C(Cl)c2ccccc2CCC1`, for which the Activity in assay [1] and in assay [3] was 50% in each case. Further, the IC50 on Estrogen receptor [2] came to 16 µM; at Estrogen receptor [4] it was 4 µM.

In the case of `COC1=C(/C=N/NC(=N)N)CCc2ccccc21`, the Activity in assay [1] and in assay [3] was 50% each time. The concentration for half-maximal inhibition (IC50) at Estrogen receptor [4] is at least 50 µM.

As to `N=C(N)N/N=C/C=C(\Cl)c1cccc2ccccc12`, the Activity in assay [1] and in assay [3] was 50% in each case. The compound also returned an IC50 on Estrogen receptor [4] of at least 50 µM.

As for `N=C(N)N/N=C/C1=C(Cl)c2ccccc2CC1`, the Activity in assay [1] and in assay [3] was 50% each time. For the same compound, the half-maximal inhibitory concentration (IC50) at Estrogen receptor [2] was 11 µM; on Estrogen receptor [4], 3.6 µM. For the same compound, the result in assay [5] was inactive.

Consider `C/C(=N\NC(=N)N)C1=C(Cl)c2ccccc2CC1`, for which the Activity in assay [1] and in assay [3] was 50% throughout.

Regarding `N=C(N)N/N=C/C1=C(Br)c2ccccc2CC1`, the Activity in assay [1] and in assay [3] was 50% throughout. The half-inhibitory concentration (IC50) at Estrogen receptor [4] was found to be 4.9 µM.

Turning to `Cc1cc(C)c2c(c1)C(Cl)=C(/C=N/NC(=N)N)CC2`, the Activity in assay [1] and in assay [3] was 50% throughout. The same compound displayed a half-inhibitory concentration (IC50) on Estrogen receptor [4] of 2.5 µM.

For `N=C(N)N/N=C/c1ccc2ccccc2c1`, the Activity in assay [1] and in assay [3] was 50% throughout. The same compound returned an IC50 at Estrogen receptor [4] of 11.3 µM.

In the case of `N=C(N)N/N=C/C1=C(Cl)c2ccccc2C1`, the Activity in assay [1] and in assay [3] was 50% throughout. On Estrogen receptor [4], this compound had an IC50 of 6.8 µM.

For the compound `N=C(N)N/N=C/C=C(\Cl)c1ccccc1`, the Activity in assay [1] and in assay [3] was 50% in each case. This compound also had a concentration for half-maximal inhibition (IC50) on Estrogen receptor [4] of 4.6 µM.

With `COc1ccc2c(c1)CCC(/C=N/NC(=N)N)=C2Cl`, the Activity in assay [1] and in assay [3] was 50% each time. At Estrogen receptor [4], this compound displayed an IC50 of 2.1 µM.

As to `N=C(N)N/N=C/C1=C(Oc2ccccc2)c2ccccc2CC1`, the Activity in assay [1] and in assay [3] was 50% throughout. Also, at Estrogen receptor [4], the IC50 came to 5.9 µM.

As for `N=C(N)N/N=C/c1cccc2ccccc12`, the Activity in assay [1] and in assay [3] was 50% in each case. Further, the IC50 at Estrogen receptor [4] was 11.5 µM.

With `N=C(N)N/N=C/C1=C(C(F)(F)F)c2ccccc2CC1`, the Activity in assay [1] and in assay [3] was 50% in each case.

Consider `CC1CC(/C=N/NC(=N)N)=C(Cl)c2ccccc21` (stereo not given), for which the Activity in assay [1] and in assay [3] was 50% in each case. Moreover, the half-inhibitory concentration (IC50) at Estrogen receptor [4] was 9.4 µM.

As for `CC(/C=N/NC(=N)N)=C(/Cl)c1ccccc1`, the Activity in assay [1] and in assay [3] was 50% each time. In addition, the values for the IC50 at Estrogen receptor [2] and on Estrogen receptor [4] were 37 µM and 2.6 µM, respectively.
